This passage reports inhibition results from patent publication EP4741383A1, “COMPOUND AND USE THEREOF AS ANTI-CANCER DRUG” (Tyligand Bioscience (Shanghai) Limited, priority 2023, dated 2025).

T2 sequence (P08684 whole entry): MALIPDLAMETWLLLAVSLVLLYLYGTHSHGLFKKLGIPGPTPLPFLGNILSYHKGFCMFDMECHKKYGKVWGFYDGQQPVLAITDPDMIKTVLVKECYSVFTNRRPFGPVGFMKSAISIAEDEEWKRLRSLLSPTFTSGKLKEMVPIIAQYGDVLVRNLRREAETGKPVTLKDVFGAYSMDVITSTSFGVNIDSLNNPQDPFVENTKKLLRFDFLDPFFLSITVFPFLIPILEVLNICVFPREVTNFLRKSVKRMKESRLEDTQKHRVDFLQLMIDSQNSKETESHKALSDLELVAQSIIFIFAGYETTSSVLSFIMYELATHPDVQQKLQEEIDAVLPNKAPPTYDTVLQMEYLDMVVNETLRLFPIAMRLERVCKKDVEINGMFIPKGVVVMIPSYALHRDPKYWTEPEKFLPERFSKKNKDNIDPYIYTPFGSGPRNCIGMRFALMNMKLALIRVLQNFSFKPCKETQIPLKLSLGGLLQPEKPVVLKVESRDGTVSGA

The first data set addresses T1, CYP2C8 (Homo sapiens, UniProt P10632).
T1 construct: tissue Corning or Xenotech; host or cells: human liver microsomes
T1 sequence (P10632 1-490): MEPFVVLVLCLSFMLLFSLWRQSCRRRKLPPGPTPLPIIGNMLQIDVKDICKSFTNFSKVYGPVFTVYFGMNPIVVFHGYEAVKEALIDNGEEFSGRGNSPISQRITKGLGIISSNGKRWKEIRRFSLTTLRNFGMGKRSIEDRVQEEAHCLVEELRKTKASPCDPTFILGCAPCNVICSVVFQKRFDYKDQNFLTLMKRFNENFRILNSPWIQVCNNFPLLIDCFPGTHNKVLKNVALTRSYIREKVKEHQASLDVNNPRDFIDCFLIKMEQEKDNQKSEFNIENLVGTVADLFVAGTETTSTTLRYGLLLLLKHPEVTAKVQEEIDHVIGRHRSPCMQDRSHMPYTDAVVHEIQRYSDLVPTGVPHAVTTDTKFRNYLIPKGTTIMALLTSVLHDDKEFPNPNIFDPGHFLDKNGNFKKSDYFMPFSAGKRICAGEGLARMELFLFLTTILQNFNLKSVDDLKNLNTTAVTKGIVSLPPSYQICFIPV
Nature of the data set: CYP450 inhibition in human liver microsomes, CYP2C8. The data set is classed as in vitro ADME. The settings on record: pH 7.4, read-out: % CYP inhibition @ 10 µM 2C8. The text has this: (§1) According to standard methods in the field for the study of cytochrome P450 enzyme systems, such as the method described in Kerns, Edward H. and Di Li et al., Drug-like Properties: Concepts, Structure Design and Methods: from ADME to Toxicity Optimization (2008), San Diego, Academic Press, and Lin, Tong et al., In Vitro Assessment of Cytochrome P450 Inhibition: Strategies for Increasing LC/MS-Based Assay Throughput Using a One-Point IC50 Method and Multiplexing High-Performance Liquid Chromatography (J. Pharm. Sci. 2007, 96 (9), 2485). The inhibitory effect of the disclosed compounds on the cytochrome P450 enzyme system was similarly examined below.
(§2) Human liver microsomes were purchased from Corning or Xenotech. The test compounds were evaluated by detecting the metabolism of substrates for different Cyp450 isoforms by human liver microsomes.
(§3) 0.1 M potassium phosphate buffer (K-buffer, pH 7.4) was pre-warmed.
(§4) 100 mM K-buffer was prepared by mixing 9.5 mL of stock solution A (1 M potassium dihydrogen phosphate, prepared by dissolving 136.5 g of potassium dihydrogen phosphate in 1 L of Milli-Q water) with 40.5 mL of stock solution B (1 M potassium hydrogen phosphate, prepared by dissolving 174.2 g of potassium hydrogen phosphate in 1 L of Milli-Q water). The total volume was adjusted to 500 mL with Milli-Q water, and the buffer was titrated to pH 7.4 using KOH or H3PO4.
(§5) Test compound solution and specific inhibitor solution (400× dilution) were prepared in a 96-well plate. For the test compound, 8 µL of 10 mM test compound was transferred into 12 µL of ACN. For specific inhibitors of CYP1A2, CYP2C9, and CYP2D6: 12 µL of 1 mM α-naphthoflavone, 10 µL of 40 mM sulfaphenazole, 10 µL of 10 mM quinidine, and 8 µL of DMSO were mixed. For specific inhibitors of CYP3A4, CYP2B6, CYP2C8, and CYP2C19: 8 µL of DMSO stock solution was added to 12 µL of ACN.
A 4× diluted NADPH solution was prepared by dissolving 66.7 mg of NADPH in 10 mL of 0.1 M K-buffer (pH 7.4). […]
(Liver microsomes are a subcellular fraction often used to study metabolism.)
Broadly, the inhibition is the relative decrease from the control value, in per cent. For the molecule `CC1(n2c(-c3ccc(NC(=O)C(=O)Nc4ccc(N5CCC6(CCOC6)CC5)cc4)cc3)cc3cc(F)c(-c4nnn[nH]4)cc32)CCC1` [Example 68], the inhibition at 10 min, 10 µM was found to be 42.1%.
Same read-out and setting: next, `O=C(Nc1ccc(-c2cc3cc(F)c(-c4nnn[nH]4)cc3n2C2CCC2)cc1)C(=O)Nc1ccc(N2CCC(CO)CC2)cc1` [Example 23]: 43.8%.
Same read-out and setting: next, `O=C(Nc1ccc(-c2cc3cc(F)c(-c4nnn[nH]4)cc3n2C2CCC2)cc1)C(=O)Nc1ccc(N2CCC3(CCOC3)CC2)cc1` [Example 67]: 39.2%.

Another data set concerns the target T2, CYP3A4 (Homo sapiens, UniProt P08684).
T2 construct: tissue Corning or Xenotech; host or cells: human liver microsomes
As to the kind of experiment: CYP450 inhibition in human liver microsomes, CYP3A4 (midazolam and testosterone substrates). The data set is classed as in vitro ADME. The settings on record: pH 7.4, probe midazolam, midazolam substrate, read-out: % CYP inhibition @ 10 µM 3A4 (midazolam).
Excerpt: as §1, §2, §3, §4, §5
A 4× diluted NADPH solution was prepared by dissolving 66.7 mg of NADPH in 10 mL of 0.1 M K-buffer (pH 7.4). Human liver microsome (HLM) solutions were prepared in K-buffer, wherein 0.1 mg/mL for CYP1A2, CYP2C9, CYP2D6, CYP3A4, and CYP2B6, 0.5 mg/mL for CYP2C19, 0.2 mg/mL for CYP2C8. 4× diluted substrate dilution solutions (2 mL per isozyme) were prepared in K-buffer (HLM was added on ice if required) with the following concentrations: 120 µM for CYP1A2, 40 µM for CYP2C9, 140 µM with 1.6 mg/mL HLM for CYP2C19, 40 µM for CYP2D6, 320 µM and 20 µM for CYP3A4 (two concentrations), 280 µM for CYP2B6, 40 µM with 0.4 mg/mL HLM for CYP2C8.
A 0.2 mg/mL HLM solution was prepared on ice (by adding 10 µL of 20 mg/mL stock to 990 µL of 0.1 M K buffer). To the assay wells, 400 µL of the 0.2 mg/mL HLM solution was added, followed by 2 µL of the 400× diluted test compound solution, which was added on ice to the designated wells. To the assay wells, 200 µL of the 0.2 mg/mL HLM solution was added, followed by 1 µL of the specific inhibitor solution, which was added on ice to the designated wells. The following solutions were added in duplicate to the 96-well analysis plate kept on ice: 30 µL of the 2× diluted test compound solution and the specific inhibitor solution were added to the 0.2 mg/mL HLM solution, 15 µL of the 4× diluted substrate solution was added. The 96-well assay plate and the NADPH solution were pre-incubated at 37 °C for 5 min. The reaction was initiated by adding 15 µL of the pre-warmed 8 mM NADPH solution to the assay plate. Reactions were performed at 37 °C for the following durations according to the P450 isoform: 5 min for CYP3A4, 10 min for CYP1A2, CYP2B6, CYP2C8, CYP2C9, and CYP2D6, 45 min for CYP2C19. Reactions were terminated by adding 120 µL of ACN containing internal standards. The final internal standard concentrations were: 0.1 µM for CYP2C19, CYP1A2, CYP3A4 (midazolam), and CYP2D6, 200 ng/mL for CYP3A4 (testosterone), 0.31 µM for CYP2C9, 0.36 µM (100 ng/mL) for CYP2B6, 40 ng/mL for CYP2C8. […]
With `CC1(n2c(-c3ccc(NC(=O)C(=O)Nc4ccc(N5CCC6(CCOC6)CC5)cc4)cc3)cc3cc(F)c(-c4nnn[nH]4)cc32)CCC1` [Example 68], the inhibition at 5 min, 10 µM was -10.2%.
The same measure, in the same setting: next, `O=C(Nc1ccc(-c2cc3cc(F)c(-c4nnn[nH]4)cc3n2C2CCC2)cc1)C(=O)Nc1ccc(N2CCC(CO)CC2)cc1` [Example 23]: 5.28%; `O=C(Nc1ccc(-c2cc3cc(F)c(-c4nnn[nH]4)cc3n2C2CCC2)cc1)C(=O)Nc1ccc(N2CCC3(CCOC3)CC2)cc1` [Example 67]: 13%.

The data set is the same for the next values; noted with them: pH 7.4, probe testosterone, testosterone substrate, read-out: % CYP inhibition @ 10 µM 3A4 (testosterone).
Regarding `CC1(n2c(-c3ccc(NC(=O)C(=O)Nc4ccc(N5CCC6(CCOC6)CC5)cc4)cc3)cc3cc(F)c(-c4nnn[nH]4)cc32)CCC1` [Example 68], the inhibition at 5 min, 10 µM came to 2.46%.
Consider `O=C(Nc1ccc(-c2cc3cc(F)c(-c4nnn[nH]4)cc3n2C2CCC2)cc1)C(=O)Nc1ccc(N2CCC(CO)CC2)cc1` [Example 23], for which the inhibition at 5 min, 10 µM is -22.6%.
Same read-out and setting: the value for `O=C(Nc1ccc(-c2cc3cc(F)c(-c4nnn[nH]4)cc3n2C2CCC2)cc1)C(=O)Nc1ccc(N2CCC3(CCOC3)CC2)cc1` [Example 67] was -0.87%.
